Source: paper PMC5754397, “Population pharmacokinetics of nintedanib, an inhibitor of tyrosine kinases, in patients with non-small cell lung cancer or idiopathic pulmonary fibrosis” (Cancer Chemotherapy and Pharmacology, 2017)

Columns and labels:
[1] = Phase I trial; cited from earlier work
[2] = clinical; details: human, in vivo
Description: An overview of these studies is provided in Online Resource Table S1. […] Treatment continued until disease progression or intolerable toxicity. […] Treatment cycles were continued until disease progression or intolerable toxicity. […] In all four trials, dose reductions and interruptions were allowed to manage adverse events. All studies were conducted in accordance with the Declaration of Helsinki and with approval of the local ethics committees. Written informed consent was obtained from all patients before study entry. Blood sampling schema for measurement of nintedanib plasma concentrations varied. For all trials, at least two pre-dose and two post-dose blood samples were scheduled during treatment (see Online Resource Table S1). In addition, more extensive sampling was performed in the two Phase II trials. Nintedanib and BIBF 1202 plasma concentrations were analyzed by validated liquid chromatography-mass spectrometry (HPLC-MS/MS) methods. […] The population pharmacokinetic analysis was performed using non-linear mixed-effects modeling techniques (NONMEM, version VI 2.0, ICON Development Solutions, Ellicott City, Maryland, USA). The first-order conditional estimation algorithm with interaction was used. Data processing, diagnostic plots, and calculation of descriptive statistics were performed using R version 2.12.1 (http://www.rproject.org) and SAS version 9.2 (SAS Institute Inc, Cary, NC, USA). Bootstrap analysis was performed using Perl-speaks-NONMEM, version 3.5.3 [24, 25]. A sequential approach was used for population pharmacokinetic model development. […] Inter-individual variability (IIV, η) and inter-occasion variability (IOV, κ) were modeled using exponential random effect models. For testing IOV, each visit was defined as one occasion. […] Model selection was guided by change in objective function values (OFV), identifiability of parameters and precision of parameter estimates, correlation between the estimates of fixed-effect parameters, numerical stability, ability to obtain a successful COVARIANCE step, and visual inspection of basic goodness-of-fit plots. The effects of intrinsic patient factors (e.g., gender, age, body weight, ethnicity, laboratory values, and NSCLC histology) and extrinsic factors (e.g., smoking history and alcohol consumption) on pharmacokinetic parameters of nintedanib were evaluated by applying a stepwise forward inclusion/backward elimination approach. Combinations of covariates and model parameters to be tested were pre-specified based on prior knowledge, physiological plausibility, or general clinical interest (see Online Resource Table S2). Potential effects of patient population (NSCLC versus IPF) or treatment regimen (monotherapy versus combination therapy with docetaxel or pemetrexed) could not be distinguished from trials effects, and were, therefore, not re-evaluated during covariate analysis. To assess the effect of hepatic impairment on apparent total plasma clearance (CL/F) and relative bioavailability (F1), alanine transaminase (ALT), aspartate transaminase (AST), and total bilirubin (BIL) were tested individually and in combination using an adapted liver dysfunction group (LDF) composite developed for organ dysfunction studies by the Organ Dysfunction Working Group of the National Cancer Institute. In this classification, hepatic dysfunction is classified as mild (subdivided into two subgroups), moderate, or severe according to ALT, AST, and BIL levels relative to the upper limit of normal (ULN) (see Table 1). This categorization was preferred over the classical Child-Pugh classification (based on assessments of BIL, albumin, prothrombin time, encephalopathy, and ascites) commonly used to assess surgical risk in cirrhotic patients, as it has potential disadvantages for use in oncology patients. Creatinine clearance (CLCR) estimated by the Cockcroft-Gault equation [31] was used as surrogate for renal function. […]

[3] = design: method as in PMID 20460487, PMID 25299232; details: cited from earlier work
[4] = design: method as in PMID 21204634; details: cited from earlier work
[5] = design: method as in ref 13, 21, 22 = [13]; 13. Boehringer Ingelheim (2017) OFEV® (nintedanib) capsules, for oral use; Prescribing information, revised: 08/2017. http://docs.boehringer-ingelheim.com/Prescribing%20Information/PIs/Ofev/ofev.pdf . || [21]; 21. Boehringer Ingelheim (2013) Relative bioavailability of nintedanib given alone and in combination with ketoconazole at steady state in healthy male volunteers (an open-label, randomised, two-way c || [22]; 22. Boehringer Ingelheim (2013) Relative bioavailability of a single oral dose of nintedanib given alone and in combination with multiple oral doses of rifampicin in healthy male volunteers (an open-l); details: cited from earlier work
[6] = cited from earlier work
[7] = system: idiopathic pulmonary fibrosis (IPF); design: method as in PMID 21992121, PMID 24836310; details: patients with IPF, 52-week treatment period; cited from earlier work

ALAG [2]: 0.470 (–) h | CL/F (θCL) [2]: 875 (–) L/h | F1 higher in NSCLC phase II and LUME-Lung 2 trials than in LUME-Lung 1 and IPF phase II trials [2]: 30% | V2/F (θV2) [2]: 617 (–) L | V2 when applying non-flip-flop kinetics in the final model [2]: 10,700 L | Vd/F [2]: 465 L | absorption-rate constant, Phase II trials versus Phase III trials [2]: 2 fold | change in exposure by any individual covariate at extreme values relative to a typical patient [2]: ≤ 33% | covariate effect on F1, θAge [2]: 0.00942 (–) | difference in nintedanib pharmacokinetics for Black patients, alcohol consumption or UGT1A1 polymorphism status [2]: no substantial difference | dose linearity [2]: No major deviation from dose linearity | impact of gender, patient population, NSCLC histology, therapy regimen, ECOG status, liver metastases, mild or moderate renal impairment, LDH on nintedanib pharmacokinetics [2]: no statistically significant impact | increase of F1, mild 1 liver dysfunction category [2]: 8% | increase of F1, mild 2 liver dysfunction category [2]: 13% | ka (θka) [2]: 0.0391 (–) h^-1 | ka (θka), first-order absorption-rate constant [2]: 0.0376 (7.77) h^−1 | ka higher in phase II NSCLC and IPF trials than in the two NSCLC Phase III trials [2]: 120% | ka when applying non-flip-flop kinetics in the final model [2]: 1.64 h⁻¹ | ka, absorption rate of a typical patient [2]: 0.0827 h⁻¹ | lag time [2]: 25 min | percentage change in AUCτ,ss: Chinese/Taiwanese/Indian [2]: ↑33% | percentage change in AUCτ,ss: Korean [2]: ↓22% | percentage change in AUCτ,ss: age 45 years (5th percentile) [2]: ↓16% | percentage change in AUCτ,ss: age 76 years (95th percentile) [2]: ↑13% | percentage change in AUCτ,ss: current smoker [2]: Current smoker: ↓21% | ratios of AUCτ,ss for each factor other than ethnic origin [2]: 80–125% | half-life ([2]; absorption half-life): 8.38 h | half-life ([2]; elimination half-life (population mean)): 0.36 h
SMILES: COC(=O)c1ccc2c(c1)NC(=O)/C2=C(\Nc1ccc(N(C)C(=O)CN2CCN(C)CC2)cc1)c1ccccc1 [nintedanib]
increase of exposure (AUC0−∞) by food [1]: 20% | increase of maximum plasma concentrations (Cmax) by food [1]: 20% | percentage change in AUCτ,ss: body weight 50 kg (5th percentile) [2]: ↑25% | percentage change in AUCτ,ss: body weight 100 kg (95th percentile) [2]: ↓19% | pharmacokinetic interaction between nintedanib and either docetaxel or pemetrexed [3]: no significant pharmacokinetic interaction | eliminated in urine [4]: Less than 1% | excreted in the feces [4]: about 94 % of the dose | increase of nintedanib exposure on co-administration with ketoconazole ([5]; 400 mg ketoconazole (potent P-gp inhibitor)): 60% | decrease of nintedanib exposure on co-administration with rifampicin ([5]; 600 mg rifampicin (potent P-gp inducer)): 50% | absolute bioavailability [6]: about 5% | dose proportionality of total and peak systemic exposures [6]: dose-proportional | geometric mean terminal elimination half-life [6]: 10 to 15 h | total fraction of nintedanib and its metabolites absorbed ([6]; estimated): 23% | time of peak plasma concentrations after oral dosing ([6]; patients with solid tumors): 2 to 4 h | time to steady state ([6]; twice-daily dosing): ≤ 7 days | rate of decline in forced vital capacity [7]: significant reduction
